What is called IC50 is the concentration that gives 50% inhibition.

This test has as its system NCI-H295R. The experiment in a line: IC50 (antiproliferative, ATP content). The note with it: 48 h. In short, it runs like this: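 Adrenocortical carcinoma cells in 1536-well plates (1500 per well, serum-free DMEM plus ITS, overnight culture) were exposed for 48 h at 37 °C, 5% CO2 to pin-transferred compounds at 8 final concentrations ranging 0.6 nM to 46 µM. ATP content was then read as CellTiter-Glo luminescence and normalised to vehicle and positive-control wells. The IC50 came from logistic curve fits, and any compound lacking a concentration response was recorded as above the top dose.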
In the case of `O=C1[C@H](CC[C@@H](C4=CC=C(F)C=C4)O)[C@@H]([C@]3=CC=C(O)C=C3)N1C2=CC=C(F)C=C2`, the IC50 is more than 46 µM.
Then `C=CCSCC1Nc2cc(Cl)c(S(N)(=O)=O)cc2S(=O)(=O)N1` (stereo not given), with more than 46 µM; and `CC[C@@H](C)[C@H](N)C(=O)O`, with more than 46 µM; and `CN1CCN(C(c2ccccc2)c2ccc(Cl)cc2)CC1.Cl` (stereo not given), with more than 46 µM.
To `COC(=O)c1cncn1C(C)c1ccccc1.Cl` (stereo not given) belongs more than 46 µM; to `Cl.NCCNC(=O)c1ccc(Cl)cn1`, more than 46 µM; to `O=C1c2c(O)cccc2Cc2cccc(O)c21`, more than 46 µM.
Then `CC(C)NCC(O)COc1ccc(CCOCC2CC2)cc1` (stereo not given), with more than 46 µM.
The molecule `CC(=O)N(CC(O)CO)c1c(I)c(C(=O)NCC(O)CO)c(I)c(C(=O)NCC(O)CO)c1I` (stereo not given) showed an IC50 of more than 46 µM.
The molecule `[C@]43(\C(=C2\C(c1c(O)cccc1[C@](C2C[C@H]3[C@@H](/C(=C(\C4=O)C(NCN5CCCC5)=O)O)N(C)C)(O)C)=O)O)O` (stereo not given in full) had an IC50 of more than 46 µM.
Turning to `NCCS(=O)(=O)O`, the IC50 is more than 46 µM.
To `Nc1ncnc2c1ncn2[C@@H]1O[C@H](CO)[C@@H](O)[C@H]1O` belongs more than 46 µM.
Then `C=C[C@@]1(C)CC(=O)[C@]2(O)[C@@]3(C)[C@@H](O)CCC(C)(C)[C@@H]3[C@H](O)[C@H](OC(C)=O)[C@@]2(C)O1`, with more than 46 µM.
`COc1ccccc1N1CCNCC1.Cl` had an IC50 of more than 46 µM.
To `Cc1nnc(NS(=O)(=O)c2ccc(N)cc2)s1` belongs more than 46 µM; to `O=C(O)COc1ccccc1`, more than 46 µM.
`O=C(C3)C(C(O)=CC(O[C@H]4[C@H](O)[C@@H](O)[C@H](O)[C@@H](CO[C@H]5[C@H](O)[C@H](O)[C@@H](O)[C@H](C)O5)O4)=C2)=C2O[C@@H]3[C@@]1=CC(O)=C(OC)C=C1` gave an IC50 of more than 46 µM.
`CCC(COC(=O)c1cc(OC)c(OC)c(OC)c1)(c1ccccc1)N(C)C.O=C(O)/C=C\C(=O)O` (stereo not given) yielded an IC50 of more than 46 µM.
Then `CC(C)(C)c1ccc(O)cc1`, with more than 46 µM.
Regarding `O=C(O)C(Cl)Cl`, the IC50 is more than 46 µM.
`CCN(CC)CCOC(=O)C(c1ccccc1)C1CCCCC1.Cl` (stereo not given) registered an IC50 of more than 46 µM.
Consider `CNc1cc(OC)c(C(=O)N[C@H]2CCN(Cc3ccccc3)[C@H]2C)cc1Cl`, for which the IC50 is more than 46 µM.
Then `O=C(O)Cc1cccc2ccccc12`, with more than 46 µM; and `CN1CCC\C(C1)=C(/C2=CC=CS2)C3=CC=CS3`, with more than 46 µM; and `O=S(=O)([O-])CCCS(=O)(=O)[O-].[Na+].[Na+]`, with more than 46 µM.
Then `O[C@H]1[C@@H]([C@H](O)CO)O[C@H]2[C@@H]1O[C@H]([C@@](Cl)(Cl)Cl)O2`, with more than 46 µM.
Molecule `C[n+]1ccccc1C=NO.[Cl-]` yielded an IC50 of more than 46 µM.
Then `Cc1c(N(C)CS(=O)(=O)[O-])c(=O)n(-c2ccccc2)n1C.[Na+]`, with more than 46 µM; and `Cl.FC(F)(F)c1cccc(C2=CCN(CCc3ccc4ccccc4c3)CC2)c1`, with more than 46 µM.
Turning to `Cc1ccc(S(=O)(=O)O)cc1.NC1CCN(c2nc3c(cc2F)c(=O)c(C(=O)O)cn3-c2ccc(F)cc2F)C1` (stereo not given), the IC50 is more than 46 µM.
As for `O=C1O[C@H]([C@@H](O)CO)C(O)=C1O`, the IC50 is more than 46 µM.
In the case of `C[C@@H](Cc1ccccc1)N(C)C`, the IC50 was more than 46 µM.
`Cc1ccc(C(=O)C(C)CN2CCCCC2)cc1.Cl` (stereo not given) displayed an IC50 of more than 46 µM.
Then `CC(=O)Oc1ccc(C)cc1`, with more than 46 µM.
Turning to `O=[C@](N[C@@H](C)CO)[C@@H](C4)C=C(C2=C1C(C3)=CNC1=CC=C2)[C@]3([H])N4C`, the IC50 was more than 46 µM.
For `O=C(NNCS(=O)(=O)[O-])c1ccncc1.[Na+]`, the IC50 was more than 46 µM.
Then `O[C@H]1[C@](CC2)(C)[C@@](C)(C)[C@@H]2C1`, with more than 46 µM; and `CC1=C(O[C@H](CCNC)[C@@]2=CC=CC=C2)C=CC=C1.Cl`, with more than 46 µM.
The molecule `O.O=P1(N(CCCl)CCCl)NCCCO1` (stereo not given) registered an IC50 of more than 46 µM.
To `N#Cc1ccc(C(c2ccc(C#N)cc2)n2cncn2)cc1` belongs more than 46 µM; to `C[C@H]1C(=O)NC2=Nc3cccc(Cl)c3CN21`, more than 46 µM; to `O=C1O[C@@H]3CCN2C\C=C(\COC(=O)[C@](C)(O)[C@](C)(O)[C@H]1C)[C@@H]23`, more than 46 µM.
`CCC(C)(S(=O)(=O)CC)S(=O)(=O)CC` returned an IC50 of more than 46 µM.
To `Cc1ncc(COP(=O)(O)O)c(CN)c1O` belongs more than 46 µM.
Then `O=C1NS(=O)(=O)c2ccccc21`, with more than 46 µM; and `CCOC(=O)[C@H](CCc1ccccc1)N[C@@H](C)C(=O)N1CCC[C@H]1C(=O)O`, with more than 46 µM.
To `CC(=O)OC(C)C[N+](C)(C)C.[Cl-]` (stereo not given) belongs more than 46 µM; to `Cl.N=C(N)NC(=N)NCCc1ccccc1`, more than 46 µM.
For `CN(C)CCCSc1ccccc1NC(=O)/C=C/c1ccccc1`, the IC50 was more than 46 µM.
To `COc1cc(C(=O)N2CCOCC2)cc(OC)c1OC` belongs more than 46 µM.
Take `CCN(CC)C(=O)c1cccnc1`: the IC50 is more than 46 µM.
Then `[O-][n+]1cccc(CO)c1`, with more than 46 µM.
To `CCC1C(C)=NN=C(c2ccc(OC)c(OC)c2)c2cc(OC)c(OC)cc21` (stereo not given) belongs more than 46 µM; to `Cc1noc(NS(=O)(=O)c2ccc(N)cc2)c1C`, more than 46 µM.
To `Cl.O=S(=O)(c1cccc2cnccc12)N1CCCNCC1` belongs more than 46 µM; to `Br.CC(Cc1ccc(O)cc1)NCC(O)c1cc(O)cc(O)c1` (stereo not given), more than 46 µM.
Consider `CC(C)(C)NCC(O)COc1cccc2c1C[C@H](O)[C@H](O)C2` (stereo not given in full), for which the IC50 is more than 46 µM.
With `COc1cc(NS(=O)(=O)c2ccc(N)cc2)ncn1`, the IC50 is more than 46 µM.
Molecule `Cl.O=C(OCC(O)CO)c1ccccc1Nc1ccnc2cc(Cl)ccc12` (stereo not given) yielded an IC50 of more than 46 µM.
Then `COCCOC(=O)C1=C(C)NC(C)=C(C(=O)OC(C)C)C1c1cccc([N+](=O)[O-])c1` (stereo not given), with more than 46 µM.
Then `COc1cc(/C=C/C(=O)CC(=O)/C=C/c2ccc(O)c(OC)c2)ccc1O`, with more than 46 µM; and `Cc1[nH]c(=O)c(C#N)cc1-c1ccc2nccn2c1.Cl`, with more than 46 µM.
Molecule `O=C1C2=C(C=C(C=C2O)O)O/C(=C\1O)C3=CC(=C(C=C3)O)O.O.O` came in with an IC50 of more than 46 µM.
`CNc1ccc(C(=O)CC(O)CCC(C)C2OC(=O)CC(O)CC(=O)CC(O)CC(O)CC(O)CC(O)CC3(O)CC(O)C(C(=O)OC)C(CC(O[C@@H]4O[C@H](C)[C@@H](O)[C@H](N)[C@@H]4O)/C=C/C=C/C=C/C=C/C=C/C=C/C=C/C2C)O3)cc1` (stereo not given in full) came in with a concentration for half-maximal inhibition (IC50) of more than 46 µM.
To `OB(O)O` belongs more than 46 µM; to `OC[C@@H](O)[C@@H](O)[C@@H](CO)O`, more than 46 µM; to `CCOC(CN1CCN(CC(C)C(=O)c2ccccc2)CC1)c1ccccc1.Cl.Cl` (stereo not given), more than 46 µM.
To `C[C@@H](CN1CC(=O)NC(=O)C1)N1CC(=O)NC(=O)C1` belongs more than 46 µM; to `O=C(NNCNNC(=O)c1ccncc1)c1ccncc1`, more than 46 µM; to `CCCCC1=NC2(CCCC2)C(=O)N1Cc1ccc(-c2ccccc2-c2nnn[nH]2)cc1`, more than 46 µM.
